Measurements taken from the NIST ThermoML archive (doi:10.1016/j.jct.2013.08.033).

How the values were obtained:
[1] = xn = mol fraction of the nth substance listed; details: 101 kPa, Liquid; for mass density: Pycnometric method; for speed of sound: Pulse-echo method
[2] = 101 kPa, Liquid; for mass density: Pycnometric method; for speed of sound: Pulse-echo method
[3] = molar heat capacity at constant pressure; details: 101.33 kPa, Liquid, Small sample (50 mg) DSC
[4] = refractive index (Na D-line) (dimensionless); details: 298.15 K; 101.33 kPa; Liquid; Standard Abbe refractometry

CCCCO [butan-1-ol] + CCC(O)CO
[1], x2 = 0
Details	mass density [kg/m3]	speed of sound [m/s]
293.15 K	809.65	–
298.15 K	805.81	1240.2
303.15 K	801.98	–
308.15 K	798.13	–

CCCCO [butan-1-ol]
Details	mass density, [2] [kg/m3]	molar heat capacity at constant pressure, [3] [J/K/mol]	speed of sound, [2] [m/s]
283.15 K	–	167.32	–
288.15 K	–	170.35	–
293.15 K	809.65	173.54	–
298.15 K	805.81	176.9	1240.2
303.15 K	801.98	180.41	–
308.15 K	798.13	184.09	–
313.15 K	–	187.93	–
318.15 K	–	191.93	–

Details	refractive index
[4]	1.3972

CCC(O)CO (stereo not drawn) [1,2-butanediol]
Details	mass density, [2] [kg/m3]	molar heat capacity at constant pressure, [3] [J/K/mol]	speed of sound, [2] [m/s]
283.15 K	–	222.86	–
288.15 K	–	225.62	–
293.15 K	1002.32	228.35	–
298.15 K	998.59	231.06	1449.9
303.15 K	994.78	233.74	–
308.15 K	990.97	236.4	–
313.15 K	–	239.05	–
318.15 K	–	241.66	–

Details	refractive index
[4]	1.4364

CCC(O)CO (stereo not drawn) [1,2-butanediol] + CCCCO
[1]
Details	mass density, 293.15 K [kg/m3]	mass density, 298.15 K [kg/m3]	mass density, 303.15 K [kg/m3]	mass density, 308.15 K [kg/m3]	speed of sound, 298.15 K [m/s]
x1 = 0.05027	819.25	815.37	811.5	807.63	1248.1
x1 = 0.1001	828.73	824.84	820.98	817.06	1256.3
x1 = 0.1501	838.28	834.4	830.49	826.61	1264.1
x1 = 0.3	867.03	863.1	859.21	855.24	1289.6
x1 = 0.4004	886.32	882.4	878.47	874.54	1307.8
x1 = 0.4994	905.4	901.47	897.58	893.65	1327.2
x1 = 0.6002	924.85	920.95	917.07	913.17	1348.3
x1 = 0.7001	944.16	940.28	936.42	932.51	1371.1
x1 = 0.85	973.21	969.42	965.57	961.69	1408.2
x1 = 0.8998	982.93	979.12	975.25	971.41	1421.8
x1 = 0.9498	992.62	988.87	985.02	981.19	1435.5
x1 = 1	1002.32	998.59	994.78	990.97	1449.9
